Experimental data taken from patent US11701363B2, “Methods for treating viral disorders” (TRUSTEES OF BOSTON UNIVERSITY, priority 2009, dated 2023).
Like-named read-outs stand apart in the source and are kept apart here.

Assays:
[1] = tested on: HIV-1; settings: OD converted to pg of protein; compared with vehicle alone
Method: Virus production (p24 release) was examined in an HIV-1-infected monocyte line. Cells were treated or not treated with HDAC-inhibitors and other compounds. P24 release expressed as optical density (“OD”) (FIG. 13), and then converted to pg of protein (FIG. 14). […] DMSO was vehicle for some of the compounds tested.

[2] = tested on: EBV TK; assay: TK mRNA level by reverse transcription and real-time PCR in P3HR1 cells; type: cell-based, Epstein-Barr virus
Method: To measure the relative level of TK mRNA in various total RNA preparations, reverse transcription and quantitative PCR using real time PCR technology was used. Five micrograms of total RNA was reverse-transcribed using random hexamer primers and Superscript III cDNA synthesis kit (Invitrogen). The cDNA was diluted to a final volume of 60 μl with sterile water, 8 μl of which was then used in each real time PCR reaction in an ABI 7500 […] using SYBR-Green technology. Primers used for the amplification of TK were EBV-TK1-F: 5′-[…]-3′; EBV-TK1-R: 5′-[…]-3′. The ß-actin mRNA level in those samples were determined similarly using ß-actin-specific primers Actin/hu-F: 5′-[…]-3′; Actin/hu-R: 5′-[…]-3′. The relative level of TK expression in a sample was calculated following normalization of ß-actin expression level.

[3] = tested on: P3HR1 cells; assay: Viable cell counts of P3HR1 cells (toxicity assays and combination treatment with GCV)
Method: The EBV-positive B lymphoma cell line P3HR1 was used throughout these assays. The P3HR1 cell line was originally derived from Burkitt's lymphoma patient. EBV maintains a latent state of replication in this cell line. Cells were maintained in RPMI 1640 with 10% fetal bovine serum containing 100 U penicillin per ml and 100 μg streptomycin per ml. The HDAC inhibitors used were from five different classes: a) short chain fatty acids, b) hydroxamic acids, c) benzamides, d) cyclic tetrapeptides, and e) largazoles.
Toxicity assays with two anti-herpesvirus drugs, Gancicovir (GCV) and Penciclovir (PCV), treated to P3HR1 cells alone was conducted as a control. A total of 3×10^5 P3HR1 cells were incubated with various concentrations of GCV or PCV and incubated for 6 days. Viable cell counts were measured and toxicity was expressed as percentage of cell growth compared to untreated cells.

[4] = tested on: viral thymidine kinase; assay: Expression of viral thymidine kinase in EBV-infected lymphocytes; type: cell-based
Excerpt: Three such examples are as follows. First, many of the RNA viruses such as HIV and other retroviruses require a reverse transcriptase to transcribe their genome into DNA. A few of the agents that induce expression or activity of retroviruses and their encoded genes, such as, for example, reverse transcriptase, are known to those of ordinary skill in the art. Anti-viral agents such as nucleoside analogs can be administered to the patient. Those substrate analogs will be specifically recognized by the reverse transcriptase that, when incorporated into the infected-cell genome, prevent viral replication and may also result in cell death. Second, many viruses require an active protease to assemble virus capsids to be packaged with viral genome. Protease inhibitors or proteases that alter cleavage patterns so that packaging cannot occur can be specifically targeted with an anti-viral agent that comprises an amino acid analog or toxic conjugate. […] Ganciclovir or famcyclovir, in the presence of the viral thymidine kinase or other viral kinases, destroys the infected cell. Treatment of infected cells with both agents, according to the invention, will selectively destroy EBV virus-infected cells. In another aspect, of infected cells with both agents, according to the invention, will selectively disable or disrupt the viral activity within the cells in vivo.

[5] = tested on: EBV-TK; assay: Induction of EBV-TK activity in EBV-immortalized B-cells and patient-derived tumor cells; type: cell-based, Epstein-Barr virus; settings: preliminary in vitro studies
Excerpt: In some embodiments, inducing agents include arginine butyrate and/or other histone deacetylase inhibitors. […] TK expression can be used as a point for attack by anti-viral agents, allowing for treatment of latent infections.
Treatment of patients with viral-associated tumors such as EBV with inducing agents such as arginine butyrate, to induce the expression of EBV-TK, and GCV, to eliminate EBV-TK expressing tumor cells, is an effective, non-toxic therapy. […] Without wishing to be bound by theory, it is believed that just the presence of the EBV genome in latent form would make the tumor susceptible to this combination protocol.

## Cc1[nH]c2ccccc2c1CCNCc1ccc(/C=C/C(=O)NO)cc1 [LHB589, panobinostat]
[1]
  virus production (p24 release): active

## CCCC(CCC)C(=O)O [VA, valproic acid]
[2]
  TK expression (TK mRNA level): less efficient than NaB
[3]
  reduction of cell growth in combination treatment with GCV: very similar activity

## CCCCCCCC(=O)SCC/C=C/[C@@H]1CC(=O)NCc2nc(cs2)C2=N[C@@](C)(CS2)C(=O)N[C@@H](C(C)C)C(=O)O1 [largazole]
[1]
  virus production (p24 release): active

## CCC(Nc1ncnc2ccccc12)C(=O)O (centres unmarked) [RB3]
[1]
  virus production (p24 release): increased viral production at levels similar to the control of vehicle alone

## CC(/C=C/C(=O)NO)=C\[C@@H](C)C(=O)c1ccc(N(C)C)cc1 [TSA, trichostatin A]
[1]
  virus production (p24 release): active

## CCCCCCCCCCCCCC(=O)O[C@@H]1[C@@H](C)[C@@]2(O)[C@@H](C=C(CO)C[C@]3(O)C(=O)C(C)=C[C@@H]23)[C@@H]2C(C)(C)[C@]12OC(C)=O [PMA, phorbol myristate acetate]
[1]
  virus production (p24 release): active

## CCCC(=O)[O-].[Na+] [NaB, Na-butyrate]
[3]
  optimal concentration for combination treatment with GCV: 1.0 mM
[3]; NaB alone at a concentration higher than 1.0 mM
  cell growth with inducing agent alone: reduces cell growth to a significant degree
[3]; NaB at concentrations higher than 1.0 mM
  synergistic effects of GCV: lost

## CCC(C)(C)C(=O)O [ST20, 2,2-dimethyl butyrate]
[1]
  virus production (p24 release): increased viral production at levels similar to the control of vehicle alone

## CCC(=O)CCCCC[C@@H]1NC(=O)[C@H]2CCCCN2C(=O)[C@H]([C@@H](C)CC)NC(=O)[C@H](Cc2cn(OC)c3ccccc23)NC1=O [apicidin]
[1]
  virus production (p24 release): active
[3]; 200 nM
  cell growth without any GCV: significantly retarded
[3]; 500 nM
  toxicity to the cells: very toxic to the cells
[3]; apicidin alone, concentrations higher than 200 nM
  toxicity to the cells: quite toxic to the cells
[3]; combination with GCV, 100 nM and 200 nM
  reduction of cell growth over cells treated with apicidin alone: 40-50%

## O=C(/C=C/c1cccc(S(=O)(=O)Nc2ccccc2)c1)NO [PXD101, Belinostat]
[2]; 5 μM
  TK expression: high level of TK expression

## CC(C)C(N)=O [isobutyramide]
[4]
  expression of viral thymidine kinase and other viral protein kinases: enhance expression

## arginine butyrate
[5]
  EBV-TK activity: induces EBV-TK activity
[1]
  virus production (p24 release): active
[4]
  expression of viral thymidine kinase and other viral protein kinases: enhance expression

## O=C(CCCCCN1C(=O)c2cccc3cccc(c23)C1=O)NO [Scriptaid]
[3]; especially at 500 nM and 1 μM
  reduction of cell growth in combination treatment with GCV: strong synergistic effect with GCV

## Nc1nc2c(ncn2CCC(CO)CO)c(=O)[nH]1 [PCV, Penciclovir]
[3]
  toxicity to P3HR1 cells (percentage of cell growth compared to untreated cells): less toxic to the cells compared to GCV
[3]; in combination with Na-butyrate, concentrations higher than 40 μM
  level of inhibition of cell growth at higher concentrations: did not change significantly

## O=C(CCCCCCC(=O)Nc1ccccc1)NO [SAHA, suberoyl anilide hydroxamic acid]
[2]
  TK expression (TK mRNA level): higher level than that seen with efficient concentrations of butyrate (1.0 mM)
[3]
  reduction of cell growth in combination treatment with GCV: less effective in reducing cell growth when combined with an antiviral agent compared to butyrate

## Oxamflatin
[3]
  reduction of cell growth in combination treatment with GCV: synergistic activity with GCV
[3]; 200 nM
  activity level (growth suppression) in combination with GCV: more than what typically seen with 1.0 mM NaB

## Nc1ccccc1NC(=O)c1ccc(CNC(=O)OCc2cccnc2)cc1 [MS-275, 3-pyridinylmethyl [[4-[[(2-aminophenyl)amino]carbonyl]phenyl]methyl] carbamate]
[2]; 500 nM and higher concentrations
  TK expression: strongly induced TK expression
[2]; 6 hr post treatment
  TK expression: induced
[3]; 500 nM
  sensitizing P3HR1 cells to GCV-mediated effects: as efficient as 1.0 mM NaB
[3]; 24 hr exposure to MS-275+GCV, then GCV for up to 6 days
  sensitizing P3HR1 cells to GCV-mediated killing after short exposure: sensitized the cells to GCV-mediated effects as efficiently as a 72 hr continuous treatment
